Molecules are shown by their SMILES. Where only a bound is given, the exact number is not on record here.

The results in this text go back to patent publication US7494988B2, “Inhibitors of serine proteases, particularly hepatitis C virus NS3 protease” (Vertex Pharmaceuticals Incorporated, priority 2000, dated 2009).

The assay deals with HCV NS3 serine protease (Hepatitis C virus genotype 1a, UniProt P27958). As to the kind of experiment: Inhibition of HCV NS3 serine protease, spectrophotometric assay (5A-pNA cleavage). Type of assay: biochemical. The following applies: EDVVAbuC-p-nitroanilide (5A-pNA) substrate, 30° C., pNA release at 405 nm. The method, then:
Insofar as compounds of formula (I) are able to inhibit NS3 serine protease, they are of evident clinical utility for the treatment of viral diseases, including HCV. The compounds of this invention are tested for their ability to inhibit HCV in the following spectrophotometric assay.
The spectrophotometric assays were run in a 96-well microtiter plate at 30° C., using a SpectraMax 250 reader (Molecular Devices, Sunnyvale, Calif.) with kinetic capability. Cleavage of EDVVAbuC-p-nitroanilide (5A-pNA) substrate was performed with or without NS4A in the same buffer used for HPLC assays at 30° C., and pNA release was monitored at 405 nm. […]
Kinetic constants for the rapid equilibrium ordered bisubstrate reaction were determined from rate vs. [4A], [EDVV AbuC-pNA] data by non-linear least squares fitting to equation 1 [J. F. Morrison, Biochim. […] Kii and Kis values for peptidyl inhibitors were determined from rate vs. [inhibitor], [substrate] data and fitting to the equation for mixed inhibition: rate=Vmax[S]/{Km(1+[I]/Kis)+[S](1+[I]/Kii)} The commercial program KinetAsyst (StateCollege, Pa.) was used for both procedures. Ki values were calculated from rate vs. [inhibitor] plots by a nonlinear least squares fit of the data to the equation of Morrison for tight binding competitive inhibition [J. F. Morrison, Biochim. […]

Sequence of HCV NS3 serine protease (P27958 1027-1657): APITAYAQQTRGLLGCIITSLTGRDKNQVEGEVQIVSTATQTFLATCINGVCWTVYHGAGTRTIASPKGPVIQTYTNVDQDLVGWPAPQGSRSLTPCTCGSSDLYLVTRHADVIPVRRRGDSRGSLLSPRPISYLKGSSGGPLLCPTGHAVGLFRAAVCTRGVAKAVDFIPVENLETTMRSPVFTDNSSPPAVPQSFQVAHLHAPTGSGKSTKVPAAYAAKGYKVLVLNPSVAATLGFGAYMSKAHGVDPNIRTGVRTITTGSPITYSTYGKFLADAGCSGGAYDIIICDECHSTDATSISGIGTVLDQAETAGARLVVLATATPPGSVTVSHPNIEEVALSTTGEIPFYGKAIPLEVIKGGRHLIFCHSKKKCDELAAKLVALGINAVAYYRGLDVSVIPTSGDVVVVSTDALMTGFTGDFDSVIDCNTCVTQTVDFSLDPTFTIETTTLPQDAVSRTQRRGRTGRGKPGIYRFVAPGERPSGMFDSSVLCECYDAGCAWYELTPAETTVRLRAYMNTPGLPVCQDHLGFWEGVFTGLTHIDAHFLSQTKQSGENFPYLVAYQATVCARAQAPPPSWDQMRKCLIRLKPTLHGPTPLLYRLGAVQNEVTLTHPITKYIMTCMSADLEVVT

As for `CCC[C@H](NC(=O)C1C[C@@H](OC(=O)N2CCc3ccccc3C2)CN1C(=O)[C@@H](NC(=O)[C@@H](NC(=O)c1cnccn1)C(C)C)C(C)C)C(=O)C(=O)N1CCC1` (some centres unmarked) [Compound 7], the Ki was under 1000 nM. Take `CCC[C@H](NC(=O)C1C[C@@H](OC(=O)N2CCc3ccccc3C2)CN1C(=O)[C@@H](NC(=O)[C@@H](NC(=O)c1cnccn1)C(C)C)C(C)C)C(=O)C(=O)N1CC(Oc2ccccc2)C1` (some centres unmarked) [Compound 9]: the Ki is under 1000 nM.

One may read the Ki as the equilibrium dissociation constant of an inhibitor or competing ligand from its target. Low readings indicate higher affinity, high ones lower affinity.
